Experimental data published in patent publication US20040106150A1, “Inverse labeling method for the rapid identification of marker/target proteins” (priority 2000, published 2004).
Entries after “also recorded” stand apart in the source; their conditions may differ.

Tests used:
HCT116 cells = assay: Inverse labeling-MS phosphorylation analysis of HCT116 cell lysate treated with Raf inhibitor; format: cell-based, Human; conditions: for Change (treated/control) / Change (treated/control), % down: HCT116 cells, 20 μM, 1.5 hours vs DMSO control
Description: Human colorectal cell line HCT116 cells are grown in 6-well plates. Prior to harvesting, the cells are treated with 20 μM of the Raf inhibitor BPMI and DMSO control for 1.5 hours, respectively. Cells are then rinsed with PBS, and lysed for 5 mintues at 4° C. in Doriano lysis buffer with 100 μg/mL Perfabloc/2 μg/mL aprotinin/2 μg/mL leupeptin/1 mM NaVO4/10 mM NaF. The supernatant of the lysates are collected after centrifugation at 3,000 rpm for 5 minutes. The protein concentration is determined using Bio-Rad reagent, and the lysates are frozen at −80° C. prior to further processing and analysis.
One μL of RNase A (20 mg/mL, Sigma, St Louis, Mo.) and 1 μL of RNase T1 (10 units/mL, Invitrogen, Carlsbad, Calif.) are added to each 1 mL of lysates (total 3 mg of HCT116-DMSO control and 3 mg of HCT116-BPMI, respectively), and incubated at 37° C. for half an hour to degrade RNAs. Proteins are denatured using 6 M guanidine HCl, followed by reduction with 20 mM 1,4-dithio-DL-threitol (DTT) at 58° C. for 40 minutes and alkylation with 40 mM iodoacetamide at room temperature for 30 minutes in the dark. Each protein solution is transferred to a Slide-A-Lyzer ( 10,000 MW cutoff, Pierce, Rockford, Ill.) dialysis cassette and dialyzed against 2 to 0 M urea/50 mM ammonium bicarbonate to remove small molecule impurities and buffer exchange to 50 mM ammonium bicarbonate. Proteolysis is carried out using modified, sequencing grade trypsin (Promega, Madison, Wis.) at a 1:200 trypsin-to-protein ratio (wt:wt) in 50 mM ammonium bicarbonate at 37° C. overnight.
The peptide digests are filtered through Centricon Filters (10,000 MW cutoff, Millipore, Bedford, Mass.) to remove large molecule impurities including detergents. Flow-through (peptides) is collected. Solvent and ammonium bicarbonate are subsequently removed by SpeedVac drying.
d0- or d3-methanolic HCl (2 M) (methyl esterification reagent) is prepared by adding 160 μL of acetyl chloride to 1 mL of anhydrous d0-methyl alcohol or d3-methyl d-alcohol drop wise while stirring. After 10 minutes, 1 mL of the methyl esterification reagent is added to 1.5 mg of lyophilized peptide mixture. The reaction is performed in parallel to two identical aliquots for every sample, one using d0-reagent and one using d3-reagent, respectively. The reaction is allowed to proceed at room temperature for 30 minutes. The excess reagents are removed by SpeedVac drying. Subsequently the peptide mixtures are reconstituted with water. The inverse labeling is achieved by mixing d0-control with d3-treated (BPMI) and d3-control with d0-treated.
Enrichment of phosphopeptides is performed on a 2.1×30 mm IMAC column (POROS 20 MC, Applied Biosystems, Foster City, Calif.). Briefly, the column is washed with water, 100 mM EDTA in 1 M NaCl, followed by water and 1% acetic acid. The column is then activated with 100 mM FeCl3. The SpeedVac dried, 1 mg of the inversely-labeled methyl esterified peptide mixture (500 μg each form of d0 and d3) is dissolved in 1% acetic acid in 50% acetonitrile/water, and loaded onto iron-activated IMAC column. The unbound peptides are removed by washing with 1% acetic acid in 50% acetonitrile/water ([…]). The bound phosphopeptides are eluted with 2% ammonium hydroxide in 50% acetonitrile/water. Acetic acid is added to neutralize the eluent prior to SpeedVac drying. The phosphopeptide mixture is reconstituted with 0.1% formic acid and analyzed using capillary LC/MS, as described below.
An Ultimate capillary/nano HPLC system (LC Packings, San Francisco, Calif.) with a Swichos micro column-switching module (LC Packings, San Francisco, Calif.) is used for analysis. Separation is carried out on a 0.18×50 mm capillary column, packed with 3 μm C18 stationary phase of 300-Å pore size (PepMap, LC Packings, San Francisco, Calif.), operating at a flow rate of 2 μL/min. Mobile phase A consists of 0.1% (v/v) formic acid in water and mobile phase B of 0. 1% (v/v) formic acid in acetonitrile. […]

tumor tissue DU145 = assay: Inverse labeling-MS phosphorylation analysis of tissue lysate of mouse tumor xenograft (tumor tissue DU145), in vivo study; set-up: Change (treated/control), % down: concentration or dose not given beside the values; conditions: for Change (treated/control) / Change (treated/control), % down: tumor tissue, 1 hour treatment
Description: The phosphoproteome mapping method is further tested/applied to an in vivo study of the Raf inhibitor, BPMI (1-hour treatment) in the analysis of tissue lysate of mouse tumor xenograft. […] Although the usual 1 mg of lysate is processed and IMAC enriched, considering the overwhelming blood protein contamination, the actual amount of tissue lysate proteins in the sample is a lot less. For that reason, only 0.05% β-casein is spiked into each tissue lysate sample as internal standard. The methyl esterification/IMAC procedure is successful in removing the blood contamination from the tissue samples. As shown in FIG. 15 (B), inverse labeling-MS analysis after IMAC enrichment clearly detects the down-regulation of Ser^25 phosphorylation of oncoprotein 18, confirming the finding of the cellular studies. Additional changes in phosphorylation are also detected which includes oncogene EMS1, mouse fetuin and Epithelial-cadherin (see Table 3).

[1] = phosphopeptide ASGQAFELILpSPR, Oncoprotein 18
[2] = phosphopeptide IEpSPKLER, Heat-shock 110 kD protein
[3] = phosphopeptide LPpSSPVYEDAASFK, Oncogene EMS1
[4] = phosphopeptide RLpSPSApSPPR, Ser/Arg-related nuclear matrix protein
[5] = phosphopeptide SKESVPEFPLpSPPK, Oncoprotein 18
[6] = phosphopeptide pTQTPPVpSPAPQPTEER, Oncogene EMS1
[7] = phosphopeptide MRDWVIPPIpSCPENEK, Epithelial-cadherin (mouse/human)
[8] = phosphopeptide VoxMHTQCHSTPDpSAEDVR, Mouse fetuin

CC(C)(C)c1ccc(Nc2ncc(Cc3ccncc3)c3ccccc23)cc1 [BPMI, 1-(4-t-butylanilino)-4-[(pyridin-4-yl)-methyl]-isoquinoline]
OP18 (oncoprotein 18) Ser25 phosphorylation (HCT116 cells; HCT116 cell lysate, treated vs control): significantly down-regulated; also recorded: Down-regulation
Change (treated/control) (HCT116 cells; [1]): 0.4
Change (treated/control), % down (HCT116 cells; [1]): 60%
Change (treated/control) (HCT116 cells; [2]): 0.7
Change (treated/control), % down (HCT116 cells; [2]): 30%
Change (treated/control) (HCT116 cells; [3]): 0.8
Change (treated/control), % down (HCT116 cells; [3]): 20%
Change (treated/control) (HCT116 cells; [4]): 0.7
Change (treated/control), % down (HCT116 cells; [4]): 30%
Change (treated/control) (HCT116 cells; [5]): 0.6
Change (treated/control), % down (HCT116 cells; [5]): 40%
Change (treated/control) (HCT116 cells; [6]): 0.8
Change (treated/control), % down (HCT116 cells; [6]): 20%
Ser25 phosphorylation of oncoprotein 18 (OP18) (tumor tissue DU145; in vivo, tumor tissue DU145, 1-hour treatment): down-regulation
Change (treated/control) (tumor tissue DU145; [1]): 0.4
Change (treated/control), % down (tumor tissue DU145; [1]): 60%
Change (treated/control) (tumor tissue DU145; [3]): 0.7
Change (treated/control), % down (tumor tissue DU145; [3]): 30%
Change (treated/control) (tumor tissue DU145; [7]): 0.5
Change (treated/control), % down (tumor tissue DU145; [7]): 50%
Change (treated/control) (tumor tissue DU145; [5]): 0.8
Change (treated/control), % down (tumor tissue DU145; [5]): 20%
Change (treated/control) (tumor tissue DU145; [8]): 0.6
Change (treated/control), % down (tumor tissue DU145; [8]): 40%
Change (treated/control) (tumor tissue DU145; [6]): 0.6
Change (treated/control), % down (tumor tissue DU145; [6]): 40%
